The target of assay [1] is T1, DNMT1 (Homo sapiens, UniProt P26358). In words: in vitro DNMT activity/inhibition assay (colorimetric, Active Motif) with purified DNMT1. Format: biochemical.
Assay [2] has as its target T1, DNMT1. In words: in vitro DNMT activity/inhibition assay with purified DNMT1, positive control. The class given is biochemical.

Here are results for 2 compounds from publication PMC5029682, “Discovery and characterization of Isofistularin-3, a marine brominated alkaloid, as a new DNA demethylating agent inducing cell cycle arrest and sensitization to TRAIL in cancer cells” (Oncotarget, 2016).

As usually defined, the IC50 is the concentration needed to halve the response being measured.

T1 sequence (P26358 whole entry): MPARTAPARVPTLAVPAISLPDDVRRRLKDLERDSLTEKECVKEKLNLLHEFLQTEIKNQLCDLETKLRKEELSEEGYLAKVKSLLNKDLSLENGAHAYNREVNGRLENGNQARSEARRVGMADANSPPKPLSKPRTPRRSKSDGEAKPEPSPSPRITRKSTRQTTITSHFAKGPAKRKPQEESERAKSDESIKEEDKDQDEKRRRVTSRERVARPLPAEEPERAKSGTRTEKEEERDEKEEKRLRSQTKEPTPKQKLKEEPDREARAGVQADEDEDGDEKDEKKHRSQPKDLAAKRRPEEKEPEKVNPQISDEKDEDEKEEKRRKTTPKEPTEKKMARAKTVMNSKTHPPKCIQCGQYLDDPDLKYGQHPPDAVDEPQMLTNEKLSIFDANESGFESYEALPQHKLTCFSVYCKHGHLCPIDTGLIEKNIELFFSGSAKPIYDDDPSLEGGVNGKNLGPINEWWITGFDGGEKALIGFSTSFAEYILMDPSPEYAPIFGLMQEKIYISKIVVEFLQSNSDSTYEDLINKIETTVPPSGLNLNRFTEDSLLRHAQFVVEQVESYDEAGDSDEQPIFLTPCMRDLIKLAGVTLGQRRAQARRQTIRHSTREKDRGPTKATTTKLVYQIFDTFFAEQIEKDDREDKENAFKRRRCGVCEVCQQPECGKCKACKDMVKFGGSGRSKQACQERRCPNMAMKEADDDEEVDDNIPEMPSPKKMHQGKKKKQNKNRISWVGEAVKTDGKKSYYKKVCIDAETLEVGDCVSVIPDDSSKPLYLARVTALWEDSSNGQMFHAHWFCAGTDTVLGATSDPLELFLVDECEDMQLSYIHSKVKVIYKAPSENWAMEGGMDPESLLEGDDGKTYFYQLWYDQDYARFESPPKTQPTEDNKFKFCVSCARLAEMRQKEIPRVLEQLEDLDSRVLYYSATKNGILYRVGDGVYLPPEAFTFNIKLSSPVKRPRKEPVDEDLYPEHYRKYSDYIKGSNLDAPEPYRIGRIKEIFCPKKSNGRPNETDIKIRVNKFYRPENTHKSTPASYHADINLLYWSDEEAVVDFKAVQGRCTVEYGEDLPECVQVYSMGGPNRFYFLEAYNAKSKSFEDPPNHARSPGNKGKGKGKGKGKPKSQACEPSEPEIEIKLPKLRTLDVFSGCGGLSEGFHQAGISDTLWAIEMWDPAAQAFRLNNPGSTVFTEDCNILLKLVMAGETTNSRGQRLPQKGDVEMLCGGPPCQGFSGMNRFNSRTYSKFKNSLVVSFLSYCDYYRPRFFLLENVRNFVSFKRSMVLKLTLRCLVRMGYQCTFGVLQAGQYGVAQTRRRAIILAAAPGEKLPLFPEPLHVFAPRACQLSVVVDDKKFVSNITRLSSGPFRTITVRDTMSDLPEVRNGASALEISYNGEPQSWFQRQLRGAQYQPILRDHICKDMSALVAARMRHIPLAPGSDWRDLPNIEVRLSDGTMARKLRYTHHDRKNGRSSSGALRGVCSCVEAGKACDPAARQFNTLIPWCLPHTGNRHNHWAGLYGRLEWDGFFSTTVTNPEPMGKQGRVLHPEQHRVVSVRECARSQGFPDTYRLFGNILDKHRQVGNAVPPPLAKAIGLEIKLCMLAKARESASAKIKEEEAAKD

On DNMT1 [1], `COC1=C(Br)[C@H](O)[C@@]2(C=C1Br)CC(C(=O)NCC(O)COc1c(Br)cc(C(O)CNC(=O)C3=NO[C@]4(C=C(Br)C(OC)=C(Br)[C@@H]4O)C3)cc1Br)=NO2` (some centres unmarked) [Iso-3, Isofistularin-3] showed an IC50 of 13.5 ± 5.4 µM.
For `O=C(O[C@@H]1Cc2c(O)cc(O)cc2O[C@@H]1c1cc(O)c(O)c(O)c1)c1cc(O)c(O)c(O)c1` [EGCG, Epigallocatechin gallate], the “in vitro DNMT activity/inhibition assay with purified DNMT1, positive control” value on DNMT1 [2] is “Green tea polyphenol EGCG was used as a positive control for in vitro DNMT1 inhibition”.
